Data published in patent US20240101562A1, “NOVEL COMPOUND, AND PHARMACEUTICAL COMPOSITION FOR PREVENTING OR TREATING RESISTANT CANCER, COMPRISING SAME” (HOLOSMEDIC, priority 2020, published 2024).

How the values were obtained:
Format in all cases: cell-based
[1] = tested on: SKOV3-TR cell line (paclitaxel-resistant, derived from SKOV3); assay: WST-1 assay, co-treatment with paclitaxel, SKOV3-TR; conditions: paclitaxel alone, 3 μM or 4 μM, three days
Procedure: (§1) According to the results of WST-1 assays, which measure cell proliferation or survival, a reduction in metabolism in SKOV3 and SKOV3-TR was induced by paclitaxel treatment. The WST-1 assays were performed after SKOV3 and SKOV3-TR were co-treated with 79 types of compounds and paclitaxel.
(§2) Specifically, the two cancer cell lines grown in 96-well plates were treated with the 79 types of compounds at a low concentration (0.5 μM) or a high concentration (2 μM) and paclitaxel, and the paclitaxel concentration used herein was 3 μM or 4 μM for the SKOV3-TR cell line, and 2 nM or 0.05 μM for the SKOV3 cell line. For cytotoxicity analysis, three days after co-treatment of DMSO (paclitaxel, compound solvent), paclitaxel and the 79 types of compounds, the WST-1 assays were performed.

[2] = tested on: SKOV3 cell line (epithelial ovarian cancer); assay: WST-1 assay, co-treatment with paclitaxel, SKOV3; conditions: paclitaxel alone, 2 nM or 0.05 μM, SKOV3, three days
Procedure: as §1, §2

[3] = tested on: SKOV3-TR cell line (paclitaxel-resistant, derived from SKOV3); assay: WST-1 assay, co-treatment with docetaxel, SKOV3-TR; conditions: docetaxel alone, 1 μM, three days
Procedure: (§3) According to the results of WST-1 assays, which measure cell proliferation or survival, a reduction in metabolism in SKOV3 and SKOV3-TR was induced by docetaxel treatment.
(§4) After SKOV3 and SKOV3-TR were co-treated with 79 types of compounds and docetaxel, the WST-1 assays were performed.
(§5) Specifically, the two cancer cell lines grown in 96-well plates were treated with the 79 types of compounds at a low concentration (0.5 μM) or a high concentration (2 μM) and docetaxel, and the docetaxel concentration used herein were 1 μM for the SKOV3-TR cell line and 0.75 nM for the SKOV3 cell line. For cytotoxicity analysis, three days after the co-treatment of DMSO (docetaxel, compound solvent), docetaxel and the 79 types of compounds, the WST-1 assays were performed.

[4] = tested on: SKOV3 cell line (epithelial ovarian cancer); assay: WST-1 assay, co-treatment with docetaxel, SKOV3; conditions: docetaxel alone, 0.75 nM, SKOV3, three days
Procedure: as §3, §4, §5

SMILES | absorbance at 450 nm compared to the DMSO-treated group [1] | absorbance at 450 nm compared to the DMSO-treated group [2] | absorbance at 450 nm compared to the DMSO-treated group [3] | absorbance at 450 nm compared to the DMSO-treated group [4]
CC(=O)O[C@H]1C(=O)[C@@]2(C)[C@H]([C@H](OC(=O)c3ccccc3)[C@]3(O)C[C@H](OC(=O)[C@H](O)[C@@H](NC(=O)c4ccccc4)c4ccccc4)C(C)=C1C3(C)C)[C@]1(OC(C)=O)CO[C@@H]1C[C@@H]2O [paclitaxel] | reduced | reduced |  | 
CC(=O)O[C@@]12CO[C@@H]1C[C@H](O)[C@@]1(C)C(=O)[C@H](O)C3=C(C)[C@@H](OC(=O)[C@H](O)[C@@H](NC(=O)OC(C)(C)C)c4ccccc4)C[C@@](O)([C@@H](OC(=O)c4ccccc4)[C@H]21)C3(C)C [docetaxel] |  |  | reduced | reduced
